# Measurements reported in patent publication US9593305B2, “Differentiation of pluripotent stem cells” (Janssen Biotech, Inc., priority 2008, dated 2017).
# Legend:
# Assay type in all cases: cell-based
# [1] = test system: H1 human embryonic stem cells; test: Single-cell monolayer assay with EGF/FGF4, serum free, no activin A (Example 10, Table 10); conditions: No AA (with Wnt3a), FGF none
# Protocol: Briefly, clusters of H1 human embryonic stem cells were grown on reduced growth factor […]™ (Invitrogen; Cat #356231)-coated tissue culture plastic. Cultures were treated with Accutase (Sigma; Cat #A6964), using equivalent volumes of […] surface area for 5 minutes at 37° C., then gently resuspended, pelleted by centrifugation, and resuspended in MEF conditioned medium for counting. For assay seeding, cells were plated at 50,000 cells/cm^2 on reduced growth factor […]™-coated 96-well black plates (Packard ViewPlates; Cat #6005182) using volumes of 100 μl/well. Cells were allowed to attach and recover log phase growth over a 3 to 5 day period, feeding daily with MEF conditioned medium supplemented with 8 ng/ml bFGF (R&D Systems; Cat #233-FB). Plates were maintained at 37° C., 5% CO2 in a humidified box throughout the duration of assay.
# Stocks of EGF and FGF4 were prepared in a 96-well polypropylene plate (Corning, Inc.; Cat #3960). Compound 22 was available as a 5 mM stock solubilized in 100% DMSO (Sigma; Cat #D2650) and stored at −80° C. Assays were initiated by aspirating culture medium from each well followed by three washes in PBS to remove residual growth factors and serum. […]
# On the second day of assay, wells were again aspirated and fed with 80 μl per well were added back containing RPMI 1640 base medium supplemented with 2.5% fatty acid free BSA, 10 ng/ml bFGF, and 3.125 μM Compound 22 plus 20 μl 5× stock of growth factors to yield a final concentration of 2% fatty acid free BSA, 8 ng/ml bFGF and 2.5 μM Compound 22 in assay. Positive control wells contained the same base medium supplemented with 2% fatty acid free BSA, 8 ng/ml bFGF and 100 ng/ml recombinant human activin A. Negative control samples contained the same base medium supplemented with 2% fatty acid free BSA and 8 ng/ml bFGF but omitted treatment with activin A.
# At the conclusion of four-days of culture, assay plates were washed twice with PBS, fixed with 4% paraformaldehyde (Alexis Biochemical; Cat #ALX-350-011) at room temperature for 20 minutes, then washed three times with PBS and permeabilized with 0.5% Triton X-100 (Sigma; Cat #T8760-2) for 20 minutes at room temperature. Cells were washed again three times with PBS and blocked with 4% chicken serum (Invitrogen; Cat #16110082) in PBS for 30 minutes at room temperature. Primary antibody (goat anti-human SOX17; R&D Systems; cat #AF1924) was diluted 1:100 in 4% chicken serum and added to each well for one hour at room temperature. Alexa Fluor 488 conjugated secondary antibody (chicken anti-goat IgG; Molecular Probes; Cat #AZ1467) was diluted 1:200 in PBS and added to each sample well after washing three times with PBS. To counterstain nuclei, 4 μg/ml Hoechst 33342 (Invitrogen; Cat #H3570) was added for ten minutes at room temperature. Plates were washed once with PBS and left in 100 μl/well PBS for imaging.
# Imaging was performed using an IN Cell Analyzer 1000 (GE Healthcare) utilizing the 51008bs dichroic for cells stained with Hoechst 33342 and Alexa Fluor 488. Exposure times were optimized from positive control wells and from untreated negative control wells stained with secondary antibody alone. Images from 15 fields per well were acquired to compensate for any cell loss during the bioassay and subsequent staining procedures. Measurements for total cell number and total SOX17 intensity were obtained from each well using IN Cell Developer Toolbox 1.7 (GE Healthcare) software. Segmentation for the nuclei was determined based on gray-scale levels (baseline range 100-300) and nuclear size. Averages and standard deviations were calculated for each replicate data set. Total SOX17 protein expression was reported as total intensity or integrated intensity, defined as total fluorescence of the cell multiplied by the area of the cell. Background was eliminated based on acceptance criteria of gray-scale ranges between 200 to 3500. […]
# [2] = test system: H1 human embryonic stem cells; test: Secondary assay: compound combined with individual growth factors or small molecules, no activin A (Example 5, Table 4); conditions: growth factor 50 ng/ml combined with 2.5 μM compound and Wnt3a, no activin A
# Protocol: Clusters of H1 human embryonic stem cells were grown on reduced growth factor […]™ (Invitrogen; Cat #356231)-coated tissue culture plastic. Cells were passaged using collagenase (Invitrogen; Cat #Cat #17104-019) treatment and gentle scraping, washed to remove residual enzyme, and plated with even dispersal at a ratio of 1:1 (surface area) on reduced growth factor […]™-coated 96-well black plates (Packard ViewPlates; PerkinElmer; Cat #6005182) using volumes of 100 μl/well. Cells were allowed to attach as clusters and then recover log phase growth over a 1 to 3 day period, feeding daily with MEF conditioned medium supplemented with 8 ng/ml bFGF (R&D Systems; Cat #233-FB). Plates were maintained at 37° C., 5% CO2 in a humidified box throughout the duration of assay.
# Other agents tested were purchased as follows: BMP-7 (Sigma; Cat #B1434), LY294002 (Cayman; Cat 70920), PD98059, U0126, U0124 (EMD Biosciences; Cat #453710), muscimol (Tocris; Cat #0289), biuculline (Tocris; Cat #0130), sodium butyrate (Sigma; Cat #B5887). All growth factors were solubilized in PBS with 0.1% BSA (Sigma; Cat #A7888) and stored frozen at −80° C. Small molecules were solubilized in 100% DMSO (Sigma; Cat #D2650) and stored frozen at −80° C. The compounds were available as 5 mM stocks in 96-well plate format, solubilized in 100% DMSO and stored at −80° C. The compounds of the present invention were further diluted to an intermediate concentration of 0.2 mM in 50 mM HEPES (Invitrogen; Cat #15630-080), 20% DMSO and stored at 4° C. All growth factors and inhibitors were prepared in a deep well, 96-well polypropylene plate, diluted to 5× intermediate stocks in DMEM:F12 base medium at the beginning of assay and stored at 4° C.
# A secondary screening assay was conducted, testing in triplicate and feeding on alternate days over the four-day assay timeframe. Assays were initiated by aspirating culture medium from each well followed by three washes in PBS to remove residual growth factors and serum. Test volumes of 80 μl per well were added back containing DMEM:F12 base medium (Invitrogen; Cat #11330-032) supplemented with 0.625% FCS (HyClone; Cat #SH30070.03), 25 ng/ml Wnt3a (R&D Systems), and 3.125 μM compound plus 20 μl 5× stock of growth factor or small molecule to yield a final concentration of 0.5% FCS, 20 ng/ml Wnt3a, and 2.5 μM compound. […] Final assay concentrations of small molecules tested were as follows: muscimol (20 μM), PD98059 (1 μM), LY294002 (2.5 μM), 00124 (1 μM), U0126 (1 μM), sodium butyrate (0.5 mM). Positive control wells (100 μl/well) contained the same base medium supplemented with 0.5% FCS, 20 ng/ml Wnt3a and 100 ng/ml activin A. Negative control wells (100 μl/well) contained the same base medium with 0.5% FCS and 20 ng/ml Wnt3a, omitting activin A.
# On day 3, wells were aspirated and fed with 80 μl DMEM:F12 base medium supplemented with 2.5% FCS (HyClone) and 3.125 μM cyclic aniline-pyridinotriazine compound plus 20 μl 5× stock of growth factors or small molecules per well to yield a final concentration of 2% FCS and 2.5 μM compound (omitting Wnt3a) and as denoted on day one for all remaining growth factors or small molecules. Positive control wells (100 μl/well) contained the same base medium supplemented with 2% FCS and 100 ng/ml activin A, omitting Wnt3a. Negative control wells (100 μl/well) contained the same base medium with 2% FCS, omitting both activin A and Wnt3a.
# At the conclusion of four-days of culture, assay plates were washed twice with PBS, fixed with 4% paraformaldehyde (Alexis Biochemical; Cat #ALX-350-011) at room temperature for 20 minutes, then washed three times with PBS and permeabilized with 0.5% Triton X-100 (Sigma; Cat #T8760-2) for 20 minutes at room temperature. Cells were washed again three times with PBS and blocked with 4% chicken serum (Invitrogen; Cat #16110082) in PBS for 30 minutes at room temperature.
# [3] = test system: H1 human embryonic stem cells; test: Analogue screening in combination with only GDF-8, SOX17 (Example 21, Tables 18 and 19); parameters: Sox17 Expression: % of positive control / Cell Number: % of positive control: tested at 2.5 µM; conditions: compound in combination with GDF8; for Cell Number: Average Total Cell Number / Sox17 Expression: Average Total Intensity: four assay plates; for Cell Number: % of positive control / Sox17 Expression: % of positive control: relative to Activin A/Wnt3a of the same plate;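 as to all read-outs here: cells treated with 200 ng/ml GDF-8 in DMEM:F12 with FCS over four days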
# Method in brief: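 H1 human ES cells treated four days with 200 ng/ml GDF-8 plus 2.5 μM compound (day 1, 0.5% FCS), GDF-8 alone in 2% FCS on day 3; triplicates. Fixed cells immunostained for SOX17 with Hoechst counterstain, imaged at 15 fields/well; total SOX17 intensity normalized to activin A/Wnt3a positive control.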
# [4] = test system: H1 human embryonic stem cells; test: Analog screening with GDF-8 and growth factor/agonist pool (Example 8, Tables 7 and 8)
# Method in brief: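 H1 hESC clusters, washed free of growth factors, fed on alternate days over 4 days with DMEM:F12, 0.5% FCS, 2.5 μM compound, 25 ng/ml GDF-8 plus a 50 ng/ml growth-factor pool. Fixed cells immunostained for SOX17 and imaged; total SOX17 intensity normalised to positive control.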
# [5] = Plate 1, compound + EGF, FGF, PDGF-A, VEGF, PDGF-D, muscimol, GDF8
# [6] = Plate 1, compound + EGF, FGF, PDGF-A, VEGF, PDGF-D, muscimol, GDF8, positive control Activin A/Wnt3a
# [7] = Table 8: hits with greater than 25% activity of the positive control, with GDF-8 and growth factors/agonists
Compound,"Cell Number, % of positive control ([1]; EGF(50 ng/ml))","Cell Number, Average Total Cell Number ([1]; EGF(50 ng/ml))","Sox17 Expression, % of positive control ([1]; EGF(50 ng/ml))","Sox17 Expression, Average Total Intensity ([1]; EGF(50 ng/ml))","Cell Number, % of positive control ([1]; EGF(100 ng/ml))","Cell Number, Average Total Cell Number ([1]; EGF(100 ng/ml))","Sox17 Expression, % of positive control ([1]; EGF(100 ng/ml))","Sox17 Expression, Average Total Intensity ([1]; EGF(100 ng/ml))",increase in SOX17 expression (% of the activin A/Wnt3a control) [2],Cell Number: Average Total Cell Number [3],Sox17 Expression: Average Total Intensity [3],Cell Number: % of positive control [3],Sox17 Expression: % of positive control [3],"Cell Number, Average Total Cell Number [4, 5]","Sox17 Expression, Average Total Intensity [4, 5]","Cell Number, % of positive control [4, 6]","Sox17 Expression, % of positive control [4, 6]","Cell Number, % of positive control [4, 7]","Sox17 Expression, % of positive control [4, 7]","Sox17 Expression, Average Total Intensity [4, 7]"
EGF: growth factor purchased from R&D Systems,43.85%,5558,18.44%,5.01E+07,53.79%,6818,23.62%,6.42E+07,34%,,,,,,,,,,,
"CCN1CCCc2cccc(c2)-c2ncnc(n2)Nc2ccccc2CNC(=O)C1 [Compound 32, 15-Ethyl-13,14,15,16,18,19-hexahydro-1H-6,2-(azeno)-7,11-(metheno)-1,3,5,15,18-benzopentaazacyclohenicosin-17(12H)-one]",,,,,,,,,,4338,3.63E+07,28.9%,10.5%,8066,9.29E+07,60.2 % of positive control,37.1 % of positive control,60.2 % of positive control,37.1 % of positive control,9.29E+07
"O=C1CCN2CCN(CC2)Cc2cc(Cl)cc(c2)Nc2ncnc(n2)-c2ccc(F)c(c2)CCCN1 [Compound 24, 5-Chloro-17-fluoro-1,8,10,12,22,26,32-heptaazapentacyclo[24.2.2.1˜3,7˜0.1˜9,13˜0.1˜14,18˜]tritriaconta-3(33), 4,6,9(32), 10,12,14(31), 15,17-nonaen-23-one]",,,,,,,,,,5012,2.64E+07,33.4%,7.7%,12714,2.46E+08,94.9 % of positive control,98.2 % of positive control,94.9 % of positive control,98.2 % of positive control,2.46E+08
